Test results from paper PMC8592419 (PLoS ONE, 2021).
Values after ≈ are worked out from the molar mass of the structure shown. Each block holds one molecule with its values, some of them ahead of it. Where a SMILES comes first, the peptide text is derived from it.

Experiments:
[1] = tested on: M. abscessus clinical isolate MAB11; test: In vitro susceptibility testing (DST), CLSI broth microdilution; assay type: cell-based, M. abscessus subsp. abscessus; set-up: key to DST profile, interpretation, Day 3 / DST profile, interpretation, Day 5 / DST profile, interpretation, Day 14: S, susceptible; I, intermediate; R, resistant
Protocol: (§1) Drug susceptibility testing (DST) was performed according to the Clinical and Laboratory Standards Institute (CLSI) guidelines M24-A2 [42] using the broth microdilution method to determine the minimum inhibitory concentration (MIC). […] Colonies were grown at an adjusted cell density to a 0.5 McFarland standard and further diluted to 5×10^5 CFU/ml. […] These were then incubated at 37°C for 3, 5 and 14 days. The MIC was defined as the concentration in which no visible growth was observed. The results were interpreted according to the guidelines of CLSI. Inducible resistance was inferred by changes in MIC values from being susceptible at day 3 to resistant at day 14.

[2] = tested on: M. abscessus clinical isolate MAB01; test: as above; assay type: cell-based, M. abscessus subsp. abscessus; set-up: key to DST profile, interpretation, Day 3 / DST profile, interpretation, Day 5 / DST profile, interpretation, Day 14: S, susceptible; I, intermediate; R, resistant
Protocol: as §1

[3] = tested on: M. abscessus clinical isolate MAB05; test: as above; assay type: cell-based, M. abscessus subsp. abscessus; set-up: key to DST profile, interpretation, Day 3 / DST profile, interpretation, Day 5 / DST profile, interpretation, Day 14: S, susceptible; I, intermediate; R, resistant
Protocol: as §1

[4] = tested on: M. abscessus clinical isolate MAB06; test: as above; assay type: cell-based, M. abscessus subsp. abscessus; set-up: key to DST profile, interpretation, Day 3 / DST profile, interpretation, Day 5 / DST profile, interpretation, Day 14: S, susceptible; I, intermediate; R, resistant
Protocol: as §1

[5] = tested on: M. abscessus clinical isolate MAB07; test: as above; assay type: cell-based, M. abscessus subsp. abscessus; set-up: key to DST profile, interpretation, Day 3 / DST profile, interpretation, Day 5 / DST profile, interpretation, Day 14: S, susceptible; I, intermediate; R, resistant
Protocol: as §1

[6] = tested on: M. abscessus clinical isolate MAB04; test: as above; assay type: cell-based, M. abscessus subsp. abscessus; set-up: key to DST profile, interpretation, Day 3 / DST profile, interpretation, Day 5 / DST profile, interpretation, Day 14: S, susceptible; I, intermediate; R, resistant
Protocol: as §1

[7] = tested on: M. abscessus clinical isolate MAB09; test: as above; assay type: cell-based, M. abscessus subsp. abscessus; set-up: key to DST profile, interpretation, Day 3 / DST profile, interpretation, Day 5 / DST profile, interpretation, Day 14: S, susceptible; I, intermediate; R, resistant
Protocol: as §1

[8] = tested on: M. abscessus clinical isolate MAB02; test: as above; assay type: cell-based, M. abscessus subsp. abscessus; set-up: key to DST profile, interpretation, Day 3 / DST profile, interpretation, Day 5 / DST profile, interpretation, Day 14: S, susceptible; I, intermediate; R, resistant
Protocol: as §1

[9] = tested on: M. abscessus clinical isolate MAB03; test: as above; assay type: cell-based, M. abscessus subsp. abscessus; set-up: key to DST profile, interpretation, Day 3 / DST profile, interpretation, Day 5 / DST profile, interpretation, Day 14: S, susceptible; I, intermediate; R, resistant
Protocol: as §1

[10] = tested on: M. abscessus clinical isolate MAB10; test: as above; assay type: cell-based, M. abscessus subsp. abscessus; set-up: key to DST profile, interpretation, Day 3 / DST profile, interpretation, Day 5 / DST profile, interpretation, Day 14: S, susceptible; I, intermediate; R, resistant
Protocol: as §1

[11] = tested on: M. abscessus clinical isolate MAB08; test: as above; assay type: cell-based, M. abscessus subsp. abscessus; set-up: key to DST profile, interpretation, Day 3 / DST profile, interpretation, Day 5 / DST profile, interpretation, Day 14: S, susceptible; I, intermediate; R, resistant
Protocol: as §1

[12] = tested on: M. abscessus clinical isolate MAB14; test: as above; assay type: cell-based, M. abscessus subsp. massiliense; set-up: key to DST profile, interpretation, Day 3 / DST profile, interpretation, Day 5 / DST profile, interpretation, Day 14: S, susceptible; I, intermediate; R, resistant
Protocol: as §1

[13] = tested on: M. abscessus clinical isolate MAB12; test: as above; assay type: cell-based, M. abscessus subsp. massiliense; set-up: key to DST profile, interpretation, Day 3 / DST profile, interpretation, Day 5 / DST profile, interpretation, Day 14: S, susceptible; I, intermediate; R, resistant
Protocol: as §1

[14] = tested on: M. abscessus clinical isolate MAB15; test: as above; assay type: cell-based, M. abscessus subsp. massiliense; set-up: key to DST profile, interpretation, Day 3 / DST profile, interpretation, Day 5 / DST profile, interpretation, Day 14: S, susceptible; I, intermediate; R, resistant
Protocol: as §1

[15] = tested on: M. abscessus clinical isolate MAB13; test: as above; assay type: cell-based, M. abscessus subsp. massiliense; set-up: key to DST profile, interpretation, Day 3 / DST profile, interpretation, Day 5 / DST profile, interpretation, Day 14: S, susceptible; I, intermediate; R, resistant
Protocol: as §1

[16] = tested on: M. abscessus clinical isolate MAB16; test: as above; assay type: cell-based, M. abscessus subsp. massiliense; set-up: key to DST profile, interpretation, Day 3 / DST profile, interpretation, Day 5 / DST profile, interpretation, Day 14: S, susceptible; I, intermediate; R, resistant
Protocol: as §1

Mab ATCC19977 strain = assay type: cell-based, Mycobacterium abscessus
Protocol: Briefly, serial dilutions of the AMPs were prepared with potassium phosphate buffer (PPB) from the concentration range of 3.125 to 400 μg/ml and then 50 μl of each dilution were added to each 96-well plate. Colonies of the isolate were suspended and then further diluted in Mueller-Hinton broth to obtain a final concentration of 1×10^3 CFU/ml (optimized according to the available AMP stock concentration). Fifty microliters of this inoculum were added to each well of the plates. The plates were incubated for 3 days at 37°C. Plain media and bacterial suspensions without AMPs were used as negative and positive controls. The MIC values were read and recorded. All assays were performed in duplicate and two independent experiments.

[17] = not given; remark: listed apart in the source
[18] = Mycobacteroides abscessus, 120 h, day 5, read-out: DST profile, MIC value, Day 5

MIC [1, 18]: 16 µg/mL (≈ 27.3 µM) | MIC [2, 18]: 64 µg/mL (≈ 109 µM) | MIC [3, 18]: 32 µg/mL (≈ 54.6 µM) | MIC [4, 18]: 8 µg/mL (≈ 13.7 µM) | MIC [5, 18]: 8 µg/mL (≈ 13.7 µM) | MIC [6, 18]: 8 µg/mL (≈ 13.7 µM) | MIC [7, 18]: 8 µg/mL (≈ 13.7 µM) | MIC [8, 18]: 8 µg/mL (≈ 13.7 µM) | MIC [9, 18]: 4 µg/mL (≈ 6.83 µM) | MIC [10, 18]: 64 µg/mL (≈ 109 µM) | MIC [11, 18]: 8 µg/mL (≈ 13.7 µM) | MIC [12, 18]: 64 µg/mL (≈ 109 µM) | MIC [13, 18]: 8 µg/mL (≈ 13.7 µM) | MIC [14, 18]: 8 µg/mL (≈ 13.7 µM) | MIC [15, 18]: 8 µg/mL (≈ 13.7 µM) | MIC [16, 18]: 32 µg/mL (≈ 54.6 µM)
Structure (SMILES): NCC[C@H](O)C(=O)N[C@@H]1C[C@H](N)[C@@H](O[C@H]2O[C@H](CN)[C@@H](O)[C@H](O)[C@H]2O)[C@H](O)[C@H]1O[C@H]1O[C@H](CO)[C@@H](O)[C@H](N)[C@H]1O [AMK, Amikacin]
DST profile, interpretation, Day 5 ([1]; day 5, CLSI interpretation): S | DST profile, interpretation, Day 5 ([2]; day 5, CLSI interpretation): R | DST profile, interpretation, Day 5 ([3]; day 5, CLSI interpretation): I | DST profile, interpretation, Day 5 ([4]; day 5, CLSI interpretation): S | DST profile, interpretation, Day 5 ([5]; day 5, CLSI interpretation): S | DST profile, interpretation, Day 5 ([6]; day 5, CLSI interpretation): S | DST profile, interpretation, Day 5 ([7]; day 5, CLSI interpretation): S | DST profile, interpretation, Day 5 ([8]; day 5, CLSI interpretation): S | DST profile, interpretation, Day 5 ([9]; day 5, CLSI interpretation): S | DST profile, interpretation, Day 5 ([10]; day 5, CLSI interpretation): R | DST profile, interpretation, Day 5 ([11]; day 5, CLSI interpretation): S | DST profile, interpretation, Day 5 ([12]; day 5, CLSI interpretation): R | DST profile, interpretation, Day 5 ([13]; day 5, CLSI interpretation): S | DST profile, interpretation, Day 5 ([14]; day 5, CLSI interpretation): S | DST profile, interpretation, Day 5 ([15]; day 5, CLSI interpretation): S | DST profile, interpretation, Day 5 ([16]; day 5, CLSI interpretation): I

Structure (SMILES): CC(C)C[C@H](NC(=O)[C@H](CCCCN)NC(=O)[C@H](CC(C)C)NC(=O)[C@@H](N)CC(C)C)C(=O)N[C@@H](Cc1ccccc1)C(=O)N[C@@H](Cc1ccccc1)C(=O)N1CCC[C@H]1C(=O)N[C@@H](Cc1ccccc1)C(=O)N[C@@H](CC(C)C)C(=O)N[C@@H](CCC(=O)O)C(=O)N[C@H](C(=O)NCC(=O)N[C@@H](CCC(=O)O)C(=O)O)[C@@H](C)O [Pug-1] (H-LLKLFFPFLETGE-OH)
MIC values (Mab ATCC19977 strain): >400 µg/mL

Structure (SMILES): CC(C)[C@H](NC(=O)[C@@H](NC(=O)[C@H](CO)NC(=O)CNC(=O)[C@@H](NC(=O)[C@H](C)NC(=O)CN)C(C)C)C(C)C)C(=O)O [Pug-2] (H-GAVGSVV-OH)
MIC values (Mab ATCC19977 strain): >400 µg/mL

Structure (SMILES): CC(C)C[C@H](N)C(=O)NCC(=O)N[C@H](C(=O)N[C@@H](Cc1ccc(O)cc1)C(=O)O)[C@@H](C)O [Pug-3] (H-LGTY-OH)
MIC values (Mab ATCC19977 strain): >400 µg/mL

Structure (SMILES): CC(C)C[C@H](NC(=O)[C@H](Cc1ccccc1)NC(=O)[C@H](CO)NC(=O)[C@@H]1CCCN1C(=O)[C@@H](N)Cc1ccccc1)C(=O)N[C@H](C(=O)NCC(=O)N[C@@H](CCCNC(=N)N)C(=O)O)C(C)C [Pug-4] (H-FPSFLVGR-OH)
MIC values (Mab ATCC19977 strain): >400 µg/mL

Structure (SMILES): CC[C@H](C)[C@H](NC(=O)[C@H](CCCCN)NC(=O)[C@H](CCCNC(=N)N)NC(=O)CNC(=O)[C@H](CC(C)C)NC(=O)[C@H](CO)NC(=O)[C@H](CCCNC(=N)N)NC(=O)[C@H](CC(C)C)NC(=O)CNC(=O)CN)C(=O)N[C@@H](CC(C)C)C(=O)N[C@@H](CCCNC(=N)N)C(=O)N[C@@H](C)C(=O)N[C@@H](Cc1c[nH]c2ccccc12)C(=O)N[C@@H](CCCCN)C(=O)N[C@@H](CCCCN)C(=O)O [S62] (H-GGLRSLGRKILRAWKK-OH)
MIC after 3 days, MAB01 and MAB03: < 50 µg/mL | MIC within 24 h, majority of isolates (10/16) [17]: < 50 µg/mL | MIC values (Mab ATCC19977 strain): 200 µg/mL (≈ 109 µM)
